In patent publication US20210130339A1, “COMPOUNDS” (GLAXOSMITHKLINE INTELLECTUAL PROPERTY DEVELOPMENT LIMITED, priority 2017, published 2021):
Values joined by “and” are separate entries in the source; they are usually repeats but may differ in a detail not shown here. Identical values can stand only once.

What was measured:
[1] = biological target: T1, recombinant full length LRRK2 (Homo sapiens, UniProt Q5S007); experiment: Recombinant cellular LRRK2 AlphaScreen assay; format: cell-based; conditions: LRRK2 Ser935 phosphorylation, SH-SY5Y cells over-expressing recombinant full length LRRK2; read-out: pIC50 in the recombinant cellular LRRK2 AlphaScreen assay (converted)
T1 construct: A BacMam virus expressing full length recombinant LRRK2 was purchased from Invitrogen; host or cells: SH-SY5Y human neuroblastoma cells transduced with BacMam LRRK2 virus (MOI 50)
T1 sequence (Q5S007 whole entry): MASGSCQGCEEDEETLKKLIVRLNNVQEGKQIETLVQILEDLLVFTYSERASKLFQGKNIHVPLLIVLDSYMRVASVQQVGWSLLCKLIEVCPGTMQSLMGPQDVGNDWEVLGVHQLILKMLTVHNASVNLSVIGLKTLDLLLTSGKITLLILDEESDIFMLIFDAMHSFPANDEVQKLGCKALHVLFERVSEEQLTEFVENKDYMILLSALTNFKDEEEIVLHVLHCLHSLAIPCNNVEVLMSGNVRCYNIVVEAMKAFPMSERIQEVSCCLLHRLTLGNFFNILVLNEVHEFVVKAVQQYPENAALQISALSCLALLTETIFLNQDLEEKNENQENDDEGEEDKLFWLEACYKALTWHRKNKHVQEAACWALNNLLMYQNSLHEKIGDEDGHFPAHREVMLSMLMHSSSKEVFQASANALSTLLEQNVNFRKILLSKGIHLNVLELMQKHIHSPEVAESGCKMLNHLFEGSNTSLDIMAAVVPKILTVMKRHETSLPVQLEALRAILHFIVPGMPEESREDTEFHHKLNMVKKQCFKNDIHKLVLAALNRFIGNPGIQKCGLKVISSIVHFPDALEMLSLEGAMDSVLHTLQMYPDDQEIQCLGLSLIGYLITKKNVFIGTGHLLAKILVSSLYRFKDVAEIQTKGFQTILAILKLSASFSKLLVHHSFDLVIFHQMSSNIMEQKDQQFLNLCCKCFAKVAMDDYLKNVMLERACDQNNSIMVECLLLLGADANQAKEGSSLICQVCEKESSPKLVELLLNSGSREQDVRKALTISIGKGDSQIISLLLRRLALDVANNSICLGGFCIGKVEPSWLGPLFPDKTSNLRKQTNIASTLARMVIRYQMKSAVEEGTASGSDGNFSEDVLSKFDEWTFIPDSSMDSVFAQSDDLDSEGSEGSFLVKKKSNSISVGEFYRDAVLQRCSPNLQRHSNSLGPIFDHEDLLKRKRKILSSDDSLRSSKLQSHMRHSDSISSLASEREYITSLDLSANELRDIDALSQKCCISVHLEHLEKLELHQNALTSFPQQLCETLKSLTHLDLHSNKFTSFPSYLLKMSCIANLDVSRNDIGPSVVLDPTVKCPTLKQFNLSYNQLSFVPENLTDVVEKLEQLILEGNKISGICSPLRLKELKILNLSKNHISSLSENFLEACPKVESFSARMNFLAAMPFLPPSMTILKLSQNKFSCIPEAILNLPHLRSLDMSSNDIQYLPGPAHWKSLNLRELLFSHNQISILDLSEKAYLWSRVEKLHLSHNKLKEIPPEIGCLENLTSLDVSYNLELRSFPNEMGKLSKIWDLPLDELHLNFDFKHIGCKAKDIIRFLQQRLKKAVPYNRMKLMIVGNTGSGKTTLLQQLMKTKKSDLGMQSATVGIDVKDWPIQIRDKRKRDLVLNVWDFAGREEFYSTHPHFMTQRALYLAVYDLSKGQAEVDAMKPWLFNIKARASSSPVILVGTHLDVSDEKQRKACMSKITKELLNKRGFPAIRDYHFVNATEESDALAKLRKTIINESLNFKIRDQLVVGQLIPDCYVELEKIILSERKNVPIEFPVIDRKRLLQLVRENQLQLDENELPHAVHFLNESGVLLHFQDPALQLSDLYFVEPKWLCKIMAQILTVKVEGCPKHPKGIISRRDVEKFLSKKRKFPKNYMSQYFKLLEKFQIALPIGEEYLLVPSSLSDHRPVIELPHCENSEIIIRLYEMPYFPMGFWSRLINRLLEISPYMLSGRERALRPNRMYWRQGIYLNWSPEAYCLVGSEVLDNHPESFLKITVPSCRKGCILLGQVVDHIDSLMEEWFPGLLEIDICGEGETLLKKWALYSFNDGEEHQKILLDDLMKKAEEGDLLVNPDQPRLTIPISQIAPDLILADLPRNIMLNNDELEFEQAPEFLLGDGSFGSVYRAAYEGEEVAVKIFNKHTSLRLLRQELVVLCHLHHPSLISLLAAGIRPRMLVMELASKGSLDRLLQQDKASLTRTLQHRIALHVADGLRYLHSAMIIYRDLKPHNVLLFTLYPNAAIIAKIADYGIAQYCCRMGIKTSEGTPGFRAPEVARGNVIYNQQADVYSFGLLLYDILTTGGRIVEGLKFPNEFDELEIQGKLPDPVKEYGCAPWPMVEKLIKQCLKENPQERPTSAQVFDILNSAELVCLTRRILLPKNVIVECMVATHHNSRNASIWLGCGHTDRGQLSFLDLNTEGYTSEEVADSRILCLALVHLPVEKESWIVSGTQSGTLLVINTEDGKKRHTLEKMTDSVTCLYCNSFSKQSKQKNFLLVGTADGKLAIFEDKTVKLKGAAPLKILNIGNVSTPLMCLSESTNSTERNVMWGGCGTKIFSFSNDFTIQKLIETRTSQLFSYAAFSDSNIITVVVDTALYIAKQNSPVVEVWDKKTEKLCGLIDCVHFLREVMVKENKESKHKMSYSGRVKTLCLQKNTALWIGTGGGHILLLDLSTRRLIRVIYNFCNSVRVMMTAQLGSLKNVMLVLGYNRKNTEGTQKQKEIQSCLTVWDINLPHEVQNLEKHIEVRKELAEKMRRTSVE
Excerpt: b. Recombinant Cellular LRRK2 AlphaScreen Assay
To determine the activity of compounds against LRRK2 kinase activity in cells, the observed LRRK2 kinase-dependent modulation of LRRK2 Ser 935 phosphorylation (Dzamko et al., 2010, Biochem. J. 430: 405-413) was utilized to develop a quantitative 384 well plate-based immunoassay of LRRK2 Ser935 phosphorylation in the human neuroblastoma cell line SH-SY5Y, engineered to over-express recombinant full length LRRK2 protein. A BacMam virus expressing full length recombinant LRRK2 was purchased from Invitrogen and amplified by inoculation of SF-9 cells at MOI 0.3 for 4-5 days in Sf-900 III SFM medium supplemented with 3% fetal bovine serum. Infected cell cultures were then centrifuged at 2000 g for 20 minutes, viral supernatant titer determined by anti-gp64 plaque assay and stored at 4° C. Affinity-purified anti-phospho LRRK2 Ser935 sheep polyclonal antibody (Dzamko et al., 2010, Biochem. J. 430: 405-413) was biotinylated by standard methods (PerkinElmer). Anti-LRRK2 rabbit polyclonal antibody was purchased from Novus Biologicals. AlphaScreen Protein A IgG Kit (including acceptor and donor beads) was purchased from Perkin Elmer. SH-SY5Y cells were grown in DMEM/F12 medium with 10% dialysed fetal bovine serum and harvested by treatment with 0.5% trypsin-EDTA for 5 minutes at 37° C. followed by centrifugation at 1000 rpm for 4 minutes. The cell pellet was resuspended in Opti-MEM reduced serum media (Invitrogen) at 200,000 cells/ml and mixed with the BacMam LRRK2 virus at MOI=50. 50 μl cell solutions were then dispensed to each well of a 384-well plate and incubated at 37° C., 5% CO2 for 24 hours. Serial dilutions of test compounds were prepared in Opti-MEM reduced serum media (Invitrogen) and 5.6 ul transferred from compound plate to cell assay plate to achieve a top final assay concentration of 10 uM. DMSO was used in certain wells as controls. Cells were incubated at 37° C., 5% CO2 for 60 minutes. The medium was then removed and cells lysed by addition of 20 ul cell lysis buffer (Cell Signaling Technology) and incubation at 4° C. for 20 minutes. 10 ul of antibody/acceptor bead mix [(1/1000 biotinylated-pS935 LRRK2 antibody, 1/1000 total-LRRK2 antibody, 1/100 Acceptor beads in AlphaScreen detection buffer (25 mM Hepes (pH 7.4), 0.5% Triton X-100, 1 mg/ml Dextran 500 and 0.1% BSA)] was then added to each well and plates incubated for 2 hours at ambient temperature in the dark. 10 μl of donor beads solution (1/33.3 donor beads in AlphaScreen detection buffer) was then added to each well. Following incubation for a further 2 hours at ambient temperature in the dark, plates were read on an EnVision™ plate reader at emission 520-620 nm with excitation 680 nm. Dose response curve data was based on sigmoidal dose-response model.

[2] = biological target: T2, Full length G2019 human LRRK2 (Homo sapiens, UniProt Q5S007); experiment: Full length G2019 human LRRK2 Inhibition Mass Spectrometry assay; format: biochemical; conditions: LRRKtide substrate, RapidFire mass spectrometry; read-out: pIC50 in the Full length G2019 human LRRK2 Inhibition Mass Spectrometry assay (converted)
T2 construct: purified recombinant Full length Flag-LRRK2 in assay buffer; made in house; host or cells: HEK293 6E cells transduced with BacMam virus (virus generated in Sf9 cells)
T2 sequence (Q5S007 with tags, fused parts or gaps R50H): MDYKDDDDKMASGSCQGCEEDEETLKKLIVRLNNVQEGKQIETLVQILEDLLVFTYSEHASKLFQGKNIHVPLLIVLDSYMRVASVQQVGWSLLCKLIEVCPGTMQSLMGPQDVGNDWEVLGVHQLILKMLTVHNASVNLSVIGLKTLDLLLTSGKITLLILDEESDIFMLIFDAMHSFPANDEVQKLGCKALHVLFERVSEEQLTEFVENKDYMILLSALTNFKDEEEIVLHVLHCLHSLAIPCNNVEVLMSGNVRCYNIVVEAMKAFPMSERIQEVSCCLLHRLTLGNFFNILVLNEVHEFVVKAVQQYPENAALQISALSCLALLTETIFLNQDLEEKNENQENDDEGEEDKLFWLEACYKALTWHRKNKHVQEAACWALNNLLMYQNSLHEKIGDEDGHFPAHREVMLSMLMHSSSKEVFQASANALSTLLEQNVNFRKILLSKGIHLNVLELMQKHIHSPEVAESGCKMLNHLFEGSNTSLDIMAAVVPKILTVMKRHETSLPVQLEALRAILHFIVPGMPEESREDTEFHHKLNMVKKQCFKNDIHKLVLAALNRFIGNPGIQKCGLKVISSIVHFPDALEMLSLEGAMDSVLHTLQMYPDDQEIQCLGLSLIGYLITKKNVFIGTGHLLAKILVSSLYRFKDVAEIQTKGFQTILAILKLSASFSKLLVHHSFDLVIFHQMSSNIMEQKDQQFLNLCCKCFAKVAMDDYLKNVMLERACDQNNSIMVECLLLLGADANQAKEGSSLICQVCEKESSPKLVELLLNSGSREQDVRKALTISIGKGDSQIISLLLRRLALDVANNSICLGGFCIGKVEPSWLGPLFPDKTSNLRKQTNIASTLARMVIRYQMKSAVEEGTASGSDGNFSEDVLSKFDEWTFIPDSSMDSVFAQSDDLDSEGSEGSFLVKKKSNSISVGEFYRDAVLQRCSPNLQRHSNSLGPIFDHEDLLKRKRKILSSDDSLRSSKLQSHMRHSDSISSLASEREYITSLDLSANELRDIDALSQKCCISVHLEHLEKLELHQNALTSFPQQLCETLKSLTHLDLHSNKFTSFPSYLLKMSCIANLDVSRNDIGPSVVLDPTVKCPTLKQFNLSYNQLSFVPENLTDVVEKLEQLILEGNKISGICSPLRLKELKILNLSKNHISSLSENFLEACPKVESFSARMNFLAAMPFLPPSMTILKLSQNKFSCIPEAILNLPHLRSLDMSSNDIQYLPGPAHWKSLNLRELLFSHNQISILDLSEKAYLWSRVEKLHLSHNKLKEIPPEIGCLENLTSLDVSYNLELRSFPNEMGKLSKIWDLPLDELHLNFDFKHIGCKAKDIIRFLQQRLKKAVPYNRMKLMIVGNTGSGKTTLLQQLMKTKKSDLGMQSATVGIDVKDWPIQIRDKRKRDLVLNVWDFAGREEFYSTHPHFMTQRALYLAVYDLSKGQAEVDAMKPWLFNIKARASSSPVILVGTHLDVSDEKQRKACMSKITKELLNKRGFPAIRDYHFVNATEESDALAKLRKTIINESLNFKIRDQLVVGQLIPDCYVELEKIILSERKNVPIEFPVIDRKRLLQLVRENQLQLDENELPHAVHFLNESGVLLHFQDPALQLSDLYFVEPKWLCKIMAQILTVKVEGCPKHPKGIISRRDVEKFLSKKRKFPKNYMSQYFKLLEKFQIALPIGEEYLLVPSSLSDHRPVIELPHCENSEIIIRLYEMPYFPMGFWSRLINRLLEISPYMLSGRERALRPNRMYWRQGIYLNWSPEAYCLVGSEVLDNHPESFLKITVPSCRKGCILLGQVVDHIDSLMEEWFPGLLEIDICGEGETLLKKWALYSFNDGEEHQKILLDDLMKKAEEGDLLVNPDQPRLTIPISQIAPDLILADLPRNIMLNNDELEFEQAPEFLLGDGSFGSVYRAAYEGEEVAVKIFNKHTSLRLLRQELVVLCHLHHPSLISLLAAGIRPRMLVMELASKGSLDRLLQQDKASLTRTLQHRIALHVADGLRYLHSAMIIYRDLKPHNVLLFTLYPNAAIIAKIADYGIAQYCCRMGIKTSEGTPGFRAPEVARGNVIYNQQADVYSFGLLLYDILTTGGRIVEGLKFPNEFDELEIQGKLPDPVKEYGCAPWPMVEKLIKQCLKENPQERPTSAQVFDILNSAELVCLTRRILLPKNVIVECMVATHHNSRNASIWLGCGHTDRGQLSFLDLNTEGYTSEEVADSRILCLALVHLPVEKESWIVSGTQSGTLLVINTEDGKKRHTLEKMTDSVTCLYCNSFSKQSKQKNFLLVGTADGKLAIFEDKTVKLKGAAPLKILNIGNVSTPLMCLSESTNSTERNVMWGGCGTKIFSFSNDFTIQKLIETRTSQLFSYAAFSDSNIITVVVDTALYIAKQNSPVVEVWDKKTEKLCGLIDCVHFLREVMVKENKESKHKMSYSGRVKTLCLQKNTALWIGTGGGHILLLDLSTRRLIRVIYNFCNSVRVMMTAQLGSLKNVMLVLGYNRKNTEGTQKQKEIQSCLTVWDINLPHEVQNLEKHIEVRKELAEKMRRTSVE
Method: a. Full Length G2019 Human LRRK2 Inhibition Mass Spectrometry Assay
This assay for Leucine Rich Repeat Kinase 2 (LRRK2) inhibition is based on the direct measurement of the peptide ‘LRRKtide’ (LRRKtide: RLGRDKYKT*LRQIRQ and “*” refers to the site of phosphorylation.) and phosphorylated ‘LRRKtide’ using a high throughput RapidFire mass spectrometry assay. Inhibitors are compounds that reduce the conversion of LRRKtide to phospho-LRRKtide.
HEK293 6E cells were incubated in a 37° C. incubator with a humidified atmosphere of 5% CO2 on an orbital shaker rotating at 110 rpm. On the day of transduction, the cell viability was higher than 98% and the cell density was in the range of 1×10^6˜1.5×10^6 cells/ml. HEK293 6E cells were centrifuged at 1,000 rpm for 10 min, and then the cells were resuspended in fresh Freestyle 293 expression medium (Invitrogen:12338) with 0.1% F-68 (Invitrogen:24040-032) but without antibiotics (G418) at density of 1×10^6 cells/ml. BacMam virus with Flag-hu LRRK2 (genotypically normal) gene was centrifuged at 40,000 g for 2 hours, then resuspended in fresh Freestyle 293 expression medium. The resuspended virus was added into the cells in at MOI of 10. The cells were incubated in a 37° C. incubator with a humidified atmosphere of 5% CO2 in air on an orbital shaker rotating at 110 rpm. Cultures were harvested at approximately 48 hours post-transduction by centrifugation at 4,000 rpm for 20 min and pellets were frozen for purification.
The suspended cells were lysed by sonication on ice for 30 min (2 secs on/4 sec off, 20% amplitude), and centrifuged at 10,000 rpm for 30 minutes at 4° C. The supernatant was incubated with 1 mL per litre of cell culture of anti-Flag magnetic beads (Sigma-Aldrich: M8823) at 4° C. for 3 hours, then the beads were washed by 5 mL (5 column volume) binding buffer (50 mM Tris pH7.5@ 4C, 500 mM NaCl, 0.5 mM EDTA, 0.1% TritonX-100, 10% glycerol, freshly add 2 mM DTT) for three times. The Flag tagged LRRK2 proteins were eluted by Elution buffer (50 mM Tris pH7.5@ 4C, 500 mM NaCl, 0.5 mM EDTA, 0.1% TritonX-100, 10% glycerol, freshly add 2 mM DTT, 250 ug/ml Flag peptide (Sigma-Aldrich:F3290)) at 4° C. for 2 hours. Flag peptide was removed by Zeba Spin Desalting Columns, 7K MWCO (Thermo-Fisher: 89893) and the buffer of eluted LRRK2 proteins was exchanged into Storage Buffer (50 mM Tris pH7.5@4C, 150 mM NaCl, 0.5 mM EDTA, 0.02% Triton X-100, 2 mM DTT and 50% Glycerol) using Amicon Ultra Centrifugal Filter Units (100 kD) (Merck: UFC910096). Fractions containing LRRK2 proteins were pooled, aliquoted and stored at −80° C. Protein concentration was determined by Bradford protein assay, and protein purity was analyzed by NuPAG Novex 4-12% Bis-Tris Protein Gels (Invitrogen: NP0322BOX).
• 1) A 10 mM test compound was dissolved in 100% DMSO and serially diluted 1 in 4. 100 nL of this dilution series was then added to a 384 well, v bottom polypropylene plate, excluding columns 6 and 18. 100 nL of DMSO was added to columns 6 and 18 as controls wells. Assay dilution gave a top final assay concentration of test compound of 100 μM • 2) 50 μl of 1% formic acid in laboratory grade water was added to column 18 using a multidrop combi dispenser to act as a pre stopped assay control. • 3) 5 μl of ‘enzyme solution’ containing 50 nM of purified recombinant Full length Flag-LRRK2 in assay buffer (50 mM Hepes (pH 7.2), 10 mM MgCl2, 150 mM NaCl, 5% glycerol, 0.0025% triton X-100 and 1 mM DTT) was added to all wells using a multidrop combi dispenser, giving a final assay concentration of 25 nM LRRK2 enzyme. […] Test plates were then incubated for 30 minutes at room temperature. • 4) 5 μl ‘substrate solution’ containing 50 uM LRRKtide peptide substrate and 4 mM ATP was added to all wells of the plate using a multidrop combi dispenser giving a final assay concentration of 25 uM LRRKtide and 2 mM ATP. Test plates were then incubated for 1 hour at room temperature. […]

Compound	IC50 [1]	IC50 [2]
Cc1nc(N2CCO[C@H](CO)C2)cc(-n2ncc3cc(C)c(C4CCN(C5COCC5F)CC4)cc32)n1 (single isomer, unassigned) [Example E150]	≤ 100 nM	≤ 1000 nM
Cc1nc(N2CCOC(C(C)O)C2)cc(-n2ncc3cc(C)c(C4CCN(C5CCOC5)CC4)cc32)n1 (single isomer, unassigned) [Example E138, 1-(4-(2-methyl-6-(5-methyl-6-(1-(tetrahydrofuran-3-yl)piperidin-4-yl)-1H-indazol-1-yl)pyrimidin-4-yl)morpholin-2-yl)ethanol]	≤ 100 nM and 63.1 nM	≤ 100 nM and 25.1 nM
Cc1nc(N2CCOC(C(C)O)C2)cc(-n2ncc3cc(C)c(C4CCN(C5CCOC5)CC4)cc32)n1 (single isomer, unassigned) [Example E136, 1-(4-(2-methyl-6-(5-methyl-6-(1-(tetrahydrofuran-3-yl)piperidin-4-yl)-1H-indazol-1-yl)pyrimidin-4-yl)morpholin-2-yl)ethanol]	≤ 1000 nM	≤ 100 nM
Cc1nc(N2CCOC(C(C)O)C2)cc(-n2ncc3cc(C)c(C4CCN(C5CCOC5)CC4)cc32)n1 (single isomer, unassigned) [Example E139, 1-(4-(2-methyl-6-(5-methyl-6-(1-(tetrahydrofuran-3-yl)piperidin-4-yl)-1H-indazol-1-yl)pyrimidin-4-yl)morpholin-2-yl)ethanol]	≤ 1000 nM	≤ 1000 nM
COc1nc(N2CCOCC2)cc(-n2ncc3cc(C)c(C4CCN(C5CCOC5)CC4F)cc32)n1 (single isomer, unassigned) [Example E116, Cis-4-(6-(6-(3-fluoro-1-(tetrahydrofuran-3-yl)-piperidin-4-yl)-5-methyl-1H-indazol-1-yl)-2-methoxypyrimidin-4-yl)morpholine]	≤ 100 nM	≤ 100 nM
Cc1nc(N2CCOC(C(C)O)C2)cc(-n2ncc3cc(C)c(C4CCN(C5CCOC5)CC4)cc32)n1 (single isomer, unassigned) [Example E137, 1-(4-(2-methyl-6-(5-methyl-6-(1-(tetrahydrofuran-3-yl)piperidin-4-yl)-1H-indazol-1-yl)pyrimidin-4-yl)morpholin-2-yl)ethanol]	≤ 1000 nM	≤ 100 nM
Cc1nc(N2CCOC(C)(CO)C2)cc(-n2ncc3cc(C)c(C4CCN([C@H]5CCOC5)CC4)cc32)n1 (stereo partly drawn) [Example E156, (2-methyl-4-(2-methyl-6-(5-methyl-6-(1-((S)-tetrahydrofuran-3-yl)piperidin-4-yl)-1H-indazol-1-yl)pyrimidin-4-yl)morpholin-2-yl)methanol]	≤ 1000 nM	≤ 100 nM
Cc1nc(N2CCOC(C(C)O)C2)cc(-n2ncc3cc(C)c(C4CCN(C5CCOC5)CC4)cc32)n1 (single isomer, unassigned) [Example E135, 1-(4-(2-methyl-6-(5-methyl-6-(1-(tetrahydrofuran-3-yl)piperidin-4-yl)-1H-indazol-1-yl)pyrimidin-4-yl)morpholin-2-yl)ethanol]	≤ 100 nM	≤ 100 nM
Cc1nc(N2CCO[C@@H](CO)C2)cc(-n2ncc3cc(C)c(C4CCN(C5CCOC5)CC4F)cc32)n1 (single isomer, unassigned) [Example E102]	≤ 1000 nM	≤ 100 nM
Cc1nc(OC2CC(O)C2)cc(-n2ncc3cc(C)c(C4CCN(C5CCOC5)CC4)cc32)n1 (single isomer, unassigned) [Example E146, 3-((2-methyl-6-(5-methyl-6-(1-(tetrahydrofuran-3-yl)piperidin-4-yl)-1H-indazol-1-yl)pyrimidin-4-yl)oxy)cyclobutanol]		≤ 1000 nM
COc1nc(N2CC(C)(O)C2)cc(-n2ncc3cc(C)c(C4CCN(C5CCOC5)CC4)cc32)n1 (single isomer, unassigned) [Example E11, 1-(2-Methoxy-6-(5-methyl-6-(1-(tetrahydrofuran-3-yl)piperidin-4-yl)-1H-indazol-1-yl)pyrimidin-4-yl)-3-methylazetidin-3-ol]	≤ 100 nM	
Cc1nc(N2CC(C)(O)C2)cc(-n2ncc3cc(Cl)c(C4CCN(C5CCOC5)CC4)cc32)n1 (single isomer, unassigned) [Example E127, 1-(6-(5-chloro-6-(1-(tetrahydrofuran-3-yl)piperidin-4-yl)-1H-indazol-1-yl)-2-methyl-pyrimidin-4-yl)-3-methylazetidin-3-ol]		≤ 100 nM
[2H]C1(N2CCC(c3cc4c(cnn4-c4cc(N5CCO[C@H](CO)C5)nc(C)n4)cc3C)CC2)CCOC1 (single isomer, unassigned) [Example E33]		≤ 1000 nM
[2H]C1(N2CCC(c3cc4c(cnn4-c4cc(N5CCO[C@@H](CO)C5)nc(C)n4)cc3C)CC2)CCOC1 (single isomer, unassigned) [Example E36]	158 nM	
Cc1nc(N2CCOC[C@H]2CO)cc(-n2ncc3cc(C)c(C4CCN(C5CCOC5)CC4)cc32)n1 (single isomer, unassigned) [Example E111]		≤ 1000 nM
